The target in test [1] is human mGluR5a receptors (Homo sapiens (Human), UniProt P41594). Nature of the test: inhibition of glutamate-induced elevation of intracellular calcium in L(tk-) cells expressing human mGluR5a. The format is cell-based. Particulars: glutamate-induced intracellular calcium elevation, L(tk-) cells expressing human mGluR5a; read-out: mGluR5 IC50. The method in brief: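 Compounds tested for inhibition of the glutamate-induced rise in intracellular calcium concentration in L(tk-) cells stably expressing human mGluR5a.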
Sequence of human mGluR5a receptors (P41594 other isoform, or with tags, fused parts or gaps): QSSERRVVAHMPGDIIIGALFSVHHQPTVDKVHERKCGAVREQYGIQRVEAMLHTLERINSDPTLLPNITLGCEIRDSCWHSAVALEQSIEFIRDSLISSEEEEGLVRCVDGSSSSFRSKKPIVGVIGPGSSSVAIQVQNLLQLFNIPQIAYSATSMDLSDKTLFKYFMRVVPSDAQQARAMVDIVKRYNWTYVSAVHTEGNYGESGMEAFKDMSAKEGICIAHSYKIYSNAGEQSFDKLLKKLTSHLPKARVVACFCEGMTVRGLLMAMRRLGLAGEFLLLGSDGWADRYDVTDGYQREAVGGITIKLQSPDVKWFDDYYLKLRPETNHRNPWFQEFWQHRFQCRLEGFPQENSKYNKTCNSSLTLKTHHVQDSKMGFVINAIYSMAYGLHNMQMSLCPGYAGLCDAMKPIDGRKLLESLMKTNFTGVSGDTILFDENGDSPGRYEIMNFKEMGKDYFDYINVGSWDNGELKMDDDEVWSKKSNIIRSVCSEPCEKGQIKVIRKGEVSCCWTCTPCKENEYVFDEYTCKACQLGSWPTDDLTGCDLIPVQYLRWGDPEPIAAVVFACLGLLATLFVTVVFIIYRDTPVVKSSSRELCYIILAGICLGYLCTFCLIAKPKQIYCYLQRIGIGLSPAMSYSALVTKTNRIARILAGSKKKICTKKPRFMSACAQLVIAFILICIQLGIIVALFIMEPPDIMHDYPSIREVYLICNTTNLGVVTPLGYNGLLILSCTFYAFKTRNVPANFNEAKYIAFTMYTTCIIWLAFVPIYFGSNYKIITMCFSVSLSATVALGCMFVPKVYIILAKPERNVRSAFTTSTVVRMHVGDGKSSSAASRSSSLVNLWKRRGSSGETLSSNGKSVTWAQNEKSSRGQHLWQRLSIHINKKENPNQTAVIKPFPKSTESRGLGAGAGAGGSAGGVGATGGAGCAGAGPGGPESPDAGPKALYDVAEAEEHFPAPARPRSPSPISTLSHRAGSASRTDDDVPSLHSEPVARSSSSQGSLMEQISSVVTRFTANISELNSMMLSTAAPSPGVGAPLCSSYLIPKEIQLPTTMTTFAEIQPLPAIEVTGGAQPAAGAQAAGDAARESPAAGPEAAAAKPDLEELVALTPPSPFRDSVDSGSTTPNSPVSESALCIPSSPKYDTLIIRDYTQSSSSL
In general terms: Calcium assays in cells follow changes in intracellular calcium, usually with a dye or a luminescent sensor.

The target in test [2] is human mGluR1 (Homo sapiens (Human), UniProt Q13255). Nature of the test: mGluR1 antagonism, L-glutamate induced intracellular calcium increase (FLIPR) in CHO cells stably expressing human mGluR1. Particulars: L-glutamate induced intracellular calcium, CHO cells expressing human mGluR1, FLIPR. The format is cell-based.
Sequence of human mGluR1 (Q13255 19-1194): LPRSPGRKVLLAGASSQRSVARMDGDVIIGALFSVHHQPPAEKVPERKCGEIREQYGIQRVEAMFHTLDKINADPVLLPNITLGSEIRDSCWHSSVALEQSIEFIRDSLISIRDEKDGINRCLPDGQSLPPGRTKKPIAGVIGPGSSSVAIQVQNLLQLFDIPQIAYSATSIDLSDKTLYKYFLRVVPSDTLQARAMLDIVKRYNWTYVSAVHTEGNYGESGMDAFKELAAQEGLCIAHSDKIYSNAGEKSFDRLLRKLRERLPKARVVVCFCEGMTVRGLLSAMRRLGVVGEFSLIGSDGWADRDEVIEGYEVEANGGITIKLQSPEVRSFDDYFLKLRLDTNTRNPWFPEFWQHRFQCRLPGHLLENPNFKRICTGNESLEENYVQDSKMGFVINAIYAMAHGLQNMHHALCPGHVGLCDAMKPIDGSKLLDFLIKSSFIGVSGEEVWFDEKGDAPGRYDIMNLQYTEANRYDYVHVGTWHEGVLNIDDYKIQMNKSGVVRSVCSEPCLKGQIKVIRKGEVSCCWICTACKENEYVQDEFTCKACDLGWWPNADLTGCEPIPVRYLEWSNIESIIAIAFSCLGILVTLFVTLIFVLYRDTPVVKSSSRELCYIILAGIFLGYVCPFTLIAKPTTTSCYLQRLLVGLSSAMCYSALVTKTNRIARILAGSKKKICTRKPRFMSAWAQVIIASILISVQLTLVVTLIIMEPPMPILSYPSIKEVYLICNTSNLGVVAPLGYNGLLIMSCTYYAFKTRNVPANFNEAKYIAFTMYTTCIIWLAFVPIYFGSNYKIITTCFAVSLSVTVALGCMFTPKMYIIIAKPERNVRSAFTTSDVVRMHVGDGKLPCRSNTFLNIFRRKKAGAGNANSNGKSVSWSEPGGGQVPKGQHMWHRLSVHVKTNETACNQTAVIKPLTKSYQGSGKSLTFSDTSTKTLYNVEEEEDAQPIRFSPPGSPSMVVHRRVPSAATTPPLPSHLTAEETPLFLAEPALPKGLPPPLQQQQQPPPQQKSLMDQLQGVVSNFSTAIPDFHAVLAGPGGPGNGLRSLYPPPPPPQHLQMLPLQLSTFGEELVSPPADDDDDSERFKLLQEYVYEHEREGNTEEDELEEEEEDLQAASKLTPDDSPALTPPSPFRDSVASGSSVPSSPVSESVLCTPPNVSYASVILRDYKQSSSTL

Experimental findings from patent US8853203B2, “Diazepinone derivatives” (Novartis AG, priority 2012, dated 2014) are described below.

pIC50: −log10 of the molar value.

By pIC50 is commonly meant the negative decadic logarithm of the IC50, by convention in mol/L.

For `CCc1cn(C2=NCC(=O)N3CCc4c(cccc4C4(F)CCC4)C3=C2)cn1` [Example 113, 2-(4-ethyl-1H-imidazol-1-yl)-9-(1-fluorocyclobutyl)-7,8-dihydro-[1,4]diazepino[7,1-a]isoquinolin-5(4H)-one], the negative-log IC50 (pIC50) in test [1] was 6.92; in test [2], 5.64.

As to `CCc1cn(C2=NCC(=O)N3CCc4c(cccc4C4(F)COC4)C3=C2)cn1` [Example 114, 2-(4-ethyl-1H-imidazol-1-yl)-9-(3-fluorooxetan-3-yl)-7,8-dihydro-[1,4]diazepino[7,1-a]isoquinolin-5(4H)-one], the pIC50 in test [1] was 5.80; in test [2], less than 5.00.

As to `CC(=O)c1cccc2c1CCN1C(=O)CN=C(n3cnc(C)c3)C=C21` [Example 116, 9-acetyl-2-(4-methyl-1H-imidazol-1-yl)-7,8-dihydro-[1,4]diazepino[7,1-a]isoquinolin-5(4H)-one], the pIC50 in test [1] is 6.39; in test [2] it was less than 5.00.

Turning to `CC(=O)c1cccc2c1CCN1C(=O)CN=C(n3cnc(C4CCC4)c3)C=C21` [Example 117, 9-acetyl-2-(4-cyclobutyl-1H-imidazol-1-yl)-7,8-dihydro-[1,4]diazepino[7,1-a]isoquinolin-5(4H)-one], the negative logarithm of the IC50 (pIC50) is 7.46 in test [1] and 6.18 in test [2].

For the molecule `C=C(C)c1cccc2c1CCN1C(=O)CN=C(n3cnc([C@@H](C)OC)c3)C=C21` [Example 118, (R)-2-(4-(1-methoxyethyl)-1H-imidazol-1-yl)-9-(prop-1-en-2-yl)-7,8-dihydro-[1,4]diazepino[7,1-a]isoquinolin-5(4H)-one], the pIC50 in test [1] is 7.74; in test [2], less than 5.00.

On to `C=C(C)c1cccc2c1CCN1C(=O)CN=C(n3cnc([C@H](C)OC)c3)C=C21` [Example 119, (S)-2-(4-(1-methoxyethyl)-1H-imidazol-1-yl)-9-(prop-1-en-2-yl)-7,8-dihydro-[1,4]diazepino[7,1-a]isoquinolin-5(4H)-one], for which the pIC50 in test [1] is 7.62; in test [2], 5.59.

Take `COCc1cn(C2=NCC(=O)N3CCc4c(C5=CCCC5)cccc4C3=C2)cn1` [Example 120, 9-(cyclopent-1-en-1-yl)-2-(4-(methoxymethyl)-1H-imidazol-1-yl)-7,8-dihydro-[1,4]diazepino[7,1-a]isoquinolin-5(4H)-one]: the results for the pIC50 in test [1] and in test [2] were 8.15 and 6.05, respectively.

In the case of `C=C(C)c1cccc2c1CCN1C(=O)CN=C(n3cnc(COC)c3)C=C21` [Example 121, 2-(4-(methoxymethyl)-1H-imidazol-1-yl)-9-(prop-1-en-2-yl)-7,8-dihydro-[1,4]diazepino[7,1-a]isoquinolin-5(4H)-one], the results for the pIC50 in test [1] and in test [2] were 7.85 and 6.31, respectively.

`CO[C@@H](C)c1cn(C2=NCC(=O)N3CCc4c(cccc4C4CC4)C3=C2)cn1` [Example 122, (S)-9-cyclopropyl-2-(4-(1-methoxyethyl)-1H-imidazol-1-yl)-7,8-dihydro-[1,4]diazepino[7,1-a]isoquinolin-5(4H)-one]: the negative-log IC50 (pIC50) in test [1] is 8.30; in test [2] it was 5.96.

Consider `CO[C@H](C)c1cn(C2=NCC(=O)N3CCc4c(cccc4C4CC4)C3=C2)cn1` [Example 123, (R)-9-cyclopropyl-2-(4-(1-methoxyethyl)-1H-imidazol-1-yl)-7,8-dihydro-[1,4]diazepino[7,1-a]isoquinolin-5(4H)-one], for which the pIC50 in test [1] is 8.52; in test [2], 5.15.

On to `O=C1CN=C(n2cnc(-c3cnco3)c2)C=C2c3cccc(C4CC4)c3CCN12` [Example 123a, 9-cyclopropyl-2-(4-(oxazol-5-yl)-1H-imidazol-1-yl)-7,8-dihydro-[1,4]diazepino[7,1-a]isoquinolin-5(4H)-one], for which the pIC50 in test [1] is 7.92; in test [2], less than 5.70.

For the molecule `O=C1CN=C(n2cnc(-c3ccno3)c2)C=C2c3cccc(C4CC4)c3CCN12` [Example 123b, 9-cyclopropyl-2-(4-(isoxazol-5-yl)-1H-imidazol-1-yl)-7,8-dihydro-[1,4]diazepino[7,1-a]isoquinolin-5(4H)-one], the pIC50 was 9.00 in test [1] and 5.63 in test [2].

On to `O=C1CN=C(n2cnc(C3CC3)n2)C=C2c3cccc(C4CC4)c3CCN12` [Example 123c, 9-cyclopropyl-2-(3-cyclopropyl-1H-1,2,4-triazol-1-yl)-7,8-dihydro-[1,4]diazepino[7,1-a]isoquinolin-5(4H)-one], for which the pIC50 in test [1] is 8.10; in test [2], 6.65.

In the case of `COc1cn(C2=NCC(=O)N3CCc4c(cccc4C4CC4)C3=C2)cn1` [Example 123d, 9-cyclopropyl-2-(4-methoxy-1H-imidazol-1-yl)-7,8-dihydro-[1,4]diazepino[7,1-a]isoquinolin-5(4H)-one], the pIC50 in test [1] is 7.96; in test [2] it was 6.29.

Take `O=C1CN=C(n2cnc(C(F)(F)F)c2)C=C2c3cccc(C4CC4)c3CCN12` [Example 123e, 9-cyclopropyl-2-(4-(trifluoromethyl)-1H-imidazol-1-yl)-7,8-dihydro-[1,4]diazepino[7,1-a]isoquinolin-5(4H)-one]: the values for the pIC50 in test [1] and in test [2] were 7.25 and 5.78, respectively.

For the molecule `O=C1CN=C(n2cnc(-c3ccncc3)c2)C=C2c3cccc(C4CC4)c3CCN12` [Example 123f, 9-cyclopropyl-2-(4-(pyridin-4-yl)-1H-imidazol-1-yl)-7,8-dihydro-[1,4]diazepino[7,1-a]isoquinolin-5(4H)-one], the results for the negative-log IC50 (pIC50) in test [1] and in test [2] were 6.97 and less than 5.70, respectively.

As for `CCC(=O)c1cccc2c1CCN1C(=O)CN=C(n3cnc(C4CCC4)c3)C=C21` [Example 124, 2-(4-cyclobutyl-1H-imidazol-1-yl)-9-propionyl-7,8-dihydro-[1,4]diazepino[7,1-a]isoquinolin-5(4H)-one], the pIC50 in test [1] was 8.30; in test [2] it was 5.48.

As for `COCc1cn(C2=NCC(=O)N3CCc4c(cccc4C(C)(C)C)C3=C2)cn1` [Example 125, 9-(tert-butyl)-2-(4-(methoxymethyl)-1H-imidazol-1-yl)-7,8-dihydro-[1,4]diazepino[7,1-a]isoquinolin-5(4H)-one], the results for the pIC50 in test [1] and in test [2] were 6.74 and less than 5.70, respectively.

With `O=C1CN=C(n2cnc(C3(O)CC3)c2)C=C2c3cccc(C4CC4)c3CCN12` [Example 127, 9-cyclopropyl-2-(4-(1-hydroxycyclopropyl)-1H-imidazol-1-yl)-7,8-dihydro-[1,4]diazepino[7,1-a]isoquinolin-5(4H)-one], the pIC50 in test [1] was 8.15; in test [2] it was 5.92.

Regarding `O=C1CN=C(n2cnc(CCO)c2)C=C2c3cccc(C4CC4)c3CCN12` [Example 128, 9-cyclopropyl-2-(4-(2-hydroxyethyl)-1H-imidazol-1-yl)-7,8-dihydro-[1,4]diazepino[7,1-a]isoquinolin-5(4H)-one], the pIC50 in test [1] is 9.00; in test [2], 7.39.

With `CC(O)c1cn(C2=NCC(=O)N3CCc4c(cccc4C4CC4)C3=C2)cn1` (stereo not shown) [Example 129, 9-cyclopropyl-2-(4-(1-hydroxyethyl)-1H-imidazol-1-yl)-7,8-dihydro-[1,4]diazepino[7,1-a]isoquinolin-5(4H)-one], the pIC50 was 8.70 in test [1] and 5.82 in test [2].

Turning to `O=C1CN=C(n2cnc(C(O)C3CC3)c2)C=C2c3cccc(C4CC4)c3CCN12` (stereo not shown) [Example 130, 9-cyclopropyl-2-(4-(cyclopropyl(hydroxy)methyl)-1H-imidazol-1-yl)-7,8-dihydro-[1,4]diazepino[7,1-a]isoquinolin-5(4H)-one], the pIC50 in test [1] was 7.57; in test [2] it was 5.48.

On to `O=C1CN=C(n2cnc(COC(F)(F)F)c2)C=C2c3cccc(C4CC4)c3CCN12` [Example 131, 9-cyclopropyl-2-(4-((trifluoromethoxy)methyl)-1H-imidazol-1-yl)-7,8-dihydro-[1,4]diazepino[7,1-a]isoquinolin-5(4H)-one], for which the pIC50 in test [1] was 7.34; in test [2], less than 5.70.

As to `COC(=O)c1cccc2c1CCN1C(=O)CN=C(n3cnc(C4CC4)c3)C=C21` [Example 132, methyl 2-(4-cyclopropyl-1H-imidazol-1-yl)-5-oxo-4,5,7,8-tetrahydro-[1,4]diazepino[7,1-a]isoquinoline-9-carboxylate], the negative logarithm of the IC50 (pIC50) is 7.21 in test [1] and 5.68 in test [2].

As for `O=C1CN=C(n2cnc(C3CC3)n2)C=C2c3cccc(-c4ccc(F)cn4)c3CCN12` [Example 133, 2-(3-cyclopropyl-1H-1,2,4-triazol-1-yl)-9-(5-fluoropyridin-2-yl)-7,8-dihydro-[1,4]diazepino[7,1-a]isoquinolin-5(4H)-one], the figures for the pIC50 in test [1] and in test [2] were 6.67 and less than 5.00, respectively.

As to `O=C1CN=C(n2cnc(C3CC3)n2)C=C2c3cccc(-c4cccc(F)n4)c3CCN12` [Example 134, 2-(3-cyclopropyl-1H-1,2,4-triazol-1-yl)-9-(6-fluoropyridin-2-yl)-7,8-dihydro-[1,4]diazepino[7,1-a]isoquinolin-5(4H)-one], the pIC50 in test [1] is 6.70; in test [2], less than 5.00.

As to `O=C1CN=C(n2cnc(C3CC3)n2)C=C2c3cccc(-c4cc(F)ccn4)c3CCN12` [Example 135, 2-(3-cyclopropyl-1H-1,2,4-triazol-1-yl)-9-(4-fluoropyridin-2-yl)-7,8-dihydro-[1,4]diazepino[7,1-a]isoquinolin-5(4H)-one], the results for the pIC50 in test [1] and in test [2] were 6.08 and less than 5.00, respectively.

For the molecule `O=C1CN=C(n2cnc(C3CC3)n2)C=C2c3cccc(-c4cnc(F)cn4)c3CCN12` [Example 136, 2-(3-cyclopropyl-1H-1,2,4-triazol-1-yl)-9-(5-fluoropyrazin-2-yl)-7,8-dihydro-[1,4]diazepino[7,1-a]isoquinolin-5(4H)-one], the pIC50 is 7.72 in test [1] and less than 5.70 in test [2].

Consider `Cc1ncn(C2=NCC(=O)N3CCc4c(cccc4-c4cnc(F)cn4)C3=C2)n1` [Example 137, 9-(5-fluoropyrazin-2-yl)-2-(3-methyl-1H-1,2,4-triazol-1-yl)-7,8-dihydro-[1,4]diazepino[7,1-a]isoquinolin-5(4H)-one], for which the pIC50 in test [1] is 7.32; in test [2] it was less than 5.00.
